These results are taken from US20250099402A1, “COMPOSITIONS OF ASPIRIN AND KETAMINE” (Vitalis Analgesics LLC, priority 2022, published 2025).

Read-outs that look alike come from different tables or passages of the source.

The subject of series [1] is acute musculoskeletal pain. The settings on record: data collected from similar trials, same protocol, scales, center and team, agents and doses per Table 5, FIG. 1, cited from earlier work.
Series [2] deals with acute pain due to fracture. The settings on record: intravenous, public domain data; cited from earlier work.
The conditions of series [3]: cited from earlier work.
Series [4] is described as follows: Compatibility of ketamine and aspirin with spray coating solvents. Particulars: alcohol solvents for ketamine, aqueous solutions for aspirin.
Series [5] in a line: Ketamine pharmacokinetics and onset of action by route (background). Particulars: ketamine given concurrently through the GI.
The conditions of series [6]: in vivo; cited from earlier work.
The conditions of series [7]: cited from earlier work. This is another data set of the same source.

With `CN1CC[C@]23c4c5ccc(O)c4O[C@H]2[C@@H](O)C=C[C@H]3[C@H]1C5` [IV morphine, Morphine], the “reduction of acute musculoskeletal pain, comparator agents” value (“reduction of acute musculoskeletal pain” below) in series [1] is reported as 5.1 points.
On to `CNC1(c2ccccc2Cl)CCCCC1=O` (centres unmarked) [ketamine], for which, in series [1] (listed as intranasal (nebulized) ketamine), the “reduction of acute musculoskeletal pain” value is “about 4 points”. Moreover, the “time of peak pain reduction effect” value in series [2] was “about 5 mins”. Further, the elimination half-life in series [3] (in vivo) is 2 to 3 h. For the same compound, in series [3] (intramuscular), the “bioavailability, intramuscular injection” value was “about 93%”. Further, the “bioavailability, IV” value in series [3] (intravenous) was “about 100%”. Also, the “time to maximal concentrations, orally” value in series [3] (oral) is 30 min. Besides, the “bioavailability, oral route” value in series [3] (oral, listed as oral ketamine) was 18-20%. The “stability in spray coating solvent” value in series [4] is “reacted with alcohol solvents leading to impurities”. For the same compound, the “serum peak concentration later than directly absorbed ketamine” value in series [5] lay within 15 to 20 min.
On to `NC1(c2ccccc2Cl)CCCCC1=O` (centres unmarked) [norketamine], for which the “potency as an anesthetic relative to ketamine” value in series [6] is “one-third to one-fifth”. For the same compound, the “plasma levels relative to ketamine” value in series [3] (following oral administration of ketamine) is recorded as “three times higher”.
With `CC(C)Cc1ccc(C(C)C(=O)O)cc1` (centres unmarked) [oral ibuprofen, Ibuprofen], the “reduction of acute musculoskeletal pain” value in series [1] is listed as 2 points.
Turning to `CN1CC[C@]23c4c5ccc(O)c4O[C@H]2[C@@H](O)C=C[C@H]3[C@H]1C5.O=S(=O)(O)O` [oral morphine, Morphine Sulfate], the “reduction of acute musculoskeletal pain” value in series [1] is on record as “about 4 points”.
Consider `N[C@@H]1c2cccnc2[C@H](OC(=O)N2CCC(n3c(=O)[nH]c4ncccc43)CC2)CC[C@H]1c1cccc(F)c1F` [rimegepant], for which, in series [7] (in vivo, po), the absolute oral bioavailability entry is on record as “approximately 64%”. The “eliminated in unchanged form” value in series [7] (in vivo) is listed as ~77 % of the dose. Moreover, in series [7] (oral administration of NURTEC Orally Disintegrating Tablet), the “time of maximum concentration” value is 1.5 h.
